ChEMBL document CHEMBL3045875, “Design, synthesis, and biological evaluation studies of novel quinazolinone derivatives as anticonvulsant agents” (Med Chem Res, 2013)

Columns and labels:
[1] = system: Mus musculus; test: Anticonvulsant activity in Swiss albino Mus musculus (mouse) assessed as protection against Maximal electric shock-induced seizures at 0.5 mmol/kg, ip administered 30 min prior to electric shock-challenge relative to control; type: functional
[2] = system: Mus musculus; test: Anticonvulsant activity in Swiss albino Mus musculus (mouse) assessed as protection against PTZ-induced seizures at 0.5 mmol/kg, i.p. administered 30 min prior to PTZ-challenge relative to control; type: functional
[3] = Toxicity in ip dosed Swiss albino Mus musculus (mouse) assessed as mortality; type: organism-based; conditions: in vivo
[4] = species: Mus musculus; test: Protective index, ratio of TD50 to ED50 in Swiss albino Mus musculus (mouse)
[5] = Neurotoxicity in ip dosed Swiss albino Mus musculus (mouse) after 4 hr by rotarod test; type: toxicity, organism-based; conditions: in vivo
[6] = Therapeutic index, ratio of LD50 to ED50 in Swiss albino Mus musculus (mouse); type: organism-based; conditions: in vivo, read-out: Ratio LD50/ED50
[7] = system: Mus musculus; test: Anticonvulsant activity in ip dosed Swiss albino Mus musculus (mouse) assessed as protection against PTZ-induced seizures administered 30 min prior to PTZ-challenge; type: functional
[8] = system: Mus musculus; test: Anticonvulsant activity in Swiss albino Mus musculus (mouse) assessed as protection against PTZ-induced seizures at 0.8 mmol/kg, i.p. administered 30 min prior to PTZ-challenge relative to control; type: functional
[9] = system: Mus musculus; test: Anticonvulsant activity in Swiss albino Mus musculus (mouse) assessed as protection against Maximal electric shock-induced seizures at 0.8 mmol/kg, ip administered 30 min prior to electric shock-challenge relative to control; type: functional
[10] = system: Mus musculus; test: Anticonvulsant activity in Swiss albino Mus musculus (mouse) assessed as protection against PTZ-induced seizures at 1.8 mmol/kg, i.p. administered 30 min prior to PTZ-challenge relative to control; type: functional
[11] = system: Mus musculus; test: Anticonvulsant activity in Swiss albino Mus musculus (mouse) assessed as protection against Maximal electric shock-induced seizures at 1.8 mmol/kg, ip administered 30 min prior to electric shock-challenge relative to control; type: functional

Compound	Activity [1] [%]	Activity [2] [%]	TD50 at 4 h [5] [mg/kg]	ED50 [7] [mg/kg]	also measured
COc1ccc(Cn2c(C)nc3c(I)cc(I)cc3c2=O)cc1	33	66			
Cc1ccc(Cn2c(C)nc3c(I)cc(I)cc3c2=O)cc1	33	50			
Cc1nc2c(I)cc(I)cc2c(=O)n1Cc1cccc(C(F)(F)F)c1	33	50			
Cc1nc2c(I)cc(I)cc2c(=O)n1Cc1cccc(Cl)c1	66	100			
Cc1nc2c(I)cc(I)cc2c(=O)n1Cc1ccc(Cl)c(Cl)c1	66	66			
Cc1nc2ccccc2c(=O)n1Cc1ccc(Br)cc1	66	66			
Cc1nc2ccc(I)cc2c(=O)n1Cc1ccc(Br)cc1	66	66			
Cc1nc2c(I)cc(I)cc2c(=O)n1-c1ccc(Br)cc1	66	100			
Cc1nc2c(I)cc(I)cc2c(=O)n1Cc1ccccc1	50	66			
Cc1nc2c(I)cc(I)cc2c(=O)n1Cc1ccc(Cl)cc1	100	100	280	150	LD50 [3]: 600 mg/kg; Ratio TD50/ED50 [4]: 1.87; selectivity ratio [6]: 4
Cc1nc2c(I)cc(I)cc2c(=O)n1Cc1ccc(F)cc1	100	100	360	160	LD50 [3]: 420 mg/kg; Ratio TD50/ED50 [4]: 2.25; selectivity ratio [6]: 2.62
Cc1nc2c(I)cc(I)cc2c(=O)n1Cc1ccc(I)cc1	66	66			
Cc1nc2c(I)cc(I)cc2c(=O)n1Cc1ccc(Br)cc1	100	100	330	138	LD50 [3]: 565 mg/kg; Ratio TD50/ED50 [4]: 2.39; selectivity ratio [6]: 4.09
Cc1nc2c(I)cc(I)cc2c(=O)n1Cc1cccc([N+](=O)[O-])c1	66	100			
Cc1ccccc1-n1c(C)nc2ccccc2c1=O [METHAQUALONE]			400	200	Ratio TD50/ED50 [4]: 2; Activity [8]: 100%; Activity [9]: 100%
CCCC(CCC)C(=O)[O-].[Na+] [VALPROATE SODIUM]			450	300	Activity [10]: 100%; Activity [11]: 100%
